From EP0070049A1, “Derivative of acetylsalicylic acid having an analgetic, antipyretic, antiphlogistic and bronchosecretolytic activity” (UNIONE CHIMICA MEDICAMENTI- DIFME-S.p.A., priority 1981, dated 1983)

What was measured:
[1] = test system: oedème induit par carraghénine injectée dans la patte de rats; test: Carrageenan-induced rat paw oedema (antiphlogistic activity, Winter et al); format: in vivo; settings: voie orale; for Volume de l'oedème - ml ± d.s. après 3 heures: 3 heures après le traitement oedémigène; for Volume de l'oedème - ml ± d.s. après 6 heures: 6 heures après le traitement oedémigène
Excerpt: L'activité antiphlogistique de l'acétylsalicylate de 2(o-méthoxy-phénoxy) éthanol a été évaluée en comparaison avec celle de l'acide acétylsalicylique sur la base de la variation de volume de l'oedème induit par carraghénine injectée dans la patte de rats, suivant la technique décrite par Winter et al (Proc. Soc. Exp. Biol. Med., volume III, page 544, 1962). Les résultats de l'élaboration des épreuves sont indiqués dans le Tableau 1, dans lequel le volume de l'oedème est indiqué en millilitres z la déviation standard, et il a été mesuré 3, 4,5 et 6 heures après le traitement oedémigène; la dose de substance est indiquée en milligrammes de substance administrée par voie orale pour chaque kilogramme de poids corporel des rats; les valeurs marquées par * correspondent à une probabilité d'erreur p < 0,05, les valeurs marquées correspondent à une probabilité d'erreur p < 0,01, calculées sur les valeurs des contrôles, et les valeurs indiquées entre parenthèses indiquent l'inhibition en pour-cent calculée par rapport aux contrôles.

[2] = test system: température corporelle, augmentée par l'injection intraveineuse de nucléinate de sodium dans le lapin; test: Antipyretic activity: rise in body temperature induced by intravenous sodium nucleinate; format: in vivo; settings: for Augmentation temperature corporelle - °C ± d.s. après 1 heure: 1 heure après l'administration; for Augmentation temperature corporelle - °C ± d.s. après 2 heures: 2 heures après l'administration; for Augmentation temperature corporelle - °C ± d.s. après 3 heures: 3 heures après l'administration; for Augmentation temperature corporelle - °C ± d.s. après 4 heures: 4 heures après l'administration
Excerpt: L'activité antipyrétique de l'acétylsalicylate de 2(o-méthoxy-phénoxy)éthanol a été evaluée en comparaison avec celle de l'acide acétylsalicylique suivant la méthode, universellement employée, de la mesure de la variation de la température corporelle, augmentée par 1' injection intraveineuse de nucléinate de sodium dans le lapin. Les résultats de l'élaboration statistique des épreuves sont indiqués dans le suivant Tableau 2, dans lequel l'augmentation de la température corporelle est indiquée en °C ± la déviation standard, et a été mesurée 1, 2, 3 et 4 heures après l'administration; pour les autres valeurs est valable ce qui a été spécifié en relation avec le Tableau 1.

[3] = test system: convulsions abdominales (writhings) induites dans le souris par une injection intrapéritonéale d'acide acétique; test: Acetic acid writhing test (analgesic activity, Koster and Anderson); format: in vivo; settings: souris, 60 minutes après l'administration; for Frequence writhings: ± déviation standard
Excerpt: L'activité analgésique de l'acétylsalicylate de 2(o-méthoxy-phénoxy)éthanol a été évaluée en comparaison avec celle de l'acide acétylsalicylique sur la base de la fréquence des convulsions abdominales (writhings) induites dans le souris par une injection intrapéritonéale d'acide acétique, suivant la technique décrite par Koster et Anderson (Fed. Proc., volume 18, page 412, 1959). Les résultats de l'élaboration statistique des épreuves sont indiqués dans le suivant Tableau 3, dans lequel la fréquence des convulsions est indiquée comme nombre de convulsions par minute ± la déviation standard, et a été mesurée 60 minutes après l'administration; pour les autres valeurs est valable ce qui a été spécifié en relation avec le Tableau 1.

[4] = test system: arbre bronchial de rats Wistar; test: Bronchosecretolytic activity: pulmonary excretion of fluorescein (Mawatari); format: in vivo; settings: rats Wistar, 200 mg/Kg
Excerpt: L'activité bronchosécrétolytique de l'acétylsalicylate de 2(o-méthoxy-phénoxy)éthanol a été évaluée en comparaison avec celle du gaïacoléthanol, sur la base de la mesure des variations de la quantité d'indicateur (fluorescéine) trouvée dans l'arbre bronchial de rats Wistar, recueillie au moyen d'un système de lavage standardisé, après injection parentérale de l'indicateur, et mesurée au moyen d'un spectrofluorométre, suivant la méthode décrite par H.Mawatari ("Expérimental studies on the expectorant action of several drugs", Kagoshima Daigakeu Igakeu Zasshi, volume 27, page 561, 1976). Les résultats de l'élaboration statistique des épreuves sont recueillis dans le suivant tableau 4,dans lequel l' excrétion pulmonaire de fluorescéine est exprimée en microgrammes ± la déviation standard, soit dans la quantité totale trouvée, soit dans la quantité pour-cent rapportée à 100 g de poids corporel des rats. Entre parenthèses sont indiquées les valeurs de l'augmentation pour-cent par rapport aux contrôles. Pour les autres valeurs est valable ce qui été précisé en relation au Tableau 1.

rats = settings: rat, in vivo, 915 mg/kg
Excerpt: La toxicité subaiguë de l'acétylsalicylate de 2(o-méthoxy-phénoxy)éthanol a été évaluée en comparaison avec celle de l'acide acétylsalicylique en administrant à des rats, par voie orale, des doses journalières de substance pour 10 jours, et en relevant le nombre des animaux morts, la diminution moyenne de poids des animaux traités et l'incidence des lésions gastriques relevées, distinguées en simple hyperémie, hyperémie accompagnée par hémorragie et hémorragie accompagnée par ulcérations. Les résultats des épreuves sont indiqués dans le Tableau 5, dans lequel la dose de substance administrée est exprimée en mg de substance par kg de poids corporel et par jour, et la diminution moyenne de poids corporel à la fin du traitement est exprimée en grammes.

[5] = Solubility (characteristics of the substance); format: physicochemical

COc1ccccc1OCCOC(=O)c1ccccc1OC(C)=O [acétylsalicylate de 2(o-méthoxy-phénoxy)éthanol]
inhibition en pour-cent calculée par rapport aux contrôles, après 3 heures ([1]; 100 mg/Kg): 44,0 pour-cent | Volume de l'oedème - ml ± d.s. après 3 heures ([1]; 100 mg/Kg): 0,380 ± 0,18 ml | inhibition en pour-cent calculée par rapport aux contrôles, après 4,5 heures ([1]; 100 mg/Kg, 4,5 heures): 45,0 pour-cent | Volume de l'oedème - ml ± d.s. après 4,5 heures ([1]; 100 mg/Kg, 4,5 heures après le traitement oedémigène): 0,333 ± 0,17 ml | inhibition en pour-cent calculée par rapport aux contrôles, après 6 heures ([1]; 100 mg/Kg): 39,0 pour-cent | Volume de l'oedème - ml ± d.s. après 6 heures ([1]; 100 mg/Kg): 0,291 ± 0,13 ml | inhibition en pour-cent calculée par rapport aux contrôles, après 3 heures ([1]; 200 mg/Kg): 70,0 pour-cent | Volume de l'oedème - ml ± d.s. après 3 heures ([1]; 200 mg/Kg): 0,20 + 0,1 ml | inhibition en pour-cent calculée par rapport aux contrôles, après 4,5 heures ([1]; 200 mg/Kg, 4,5 heures): 67,0 pour-cent | Volume de l'oedème - ml ± d.s. après 4,5 heures ([1]; 200 mg/Kg, 4,5 heures après le traitement oedémigène): 0,20 + 0,11 ml | inhibition en pour-cent calculée par rapport aux contrôles, après 6 heures ([1]; 200 mg/Kg): 65,0 pour-cent | Volume de l'oedème - ml ± d.s. après 6 heures ([1]; 200 mg/Kg): 0,16 + 0,1 ml | Augmentation temperature corporelle - °C ± d.s. après 1 heure ([2]; 100 mg/Kg): 1,15 ± 0,19 °C | inhibition en pour-cent calculée par rapport aux contrôles, après 2 heures ([2]; 100 mg/Kg): 22 pour-cent | Augmentation temperature corporelle - °C ± d.s. après 2 heures ([2]; 100 mg/Kg): 1,13 ± 0,2 °C | inhibition en pour-cent calculée par rapport aux contrôles, après 3 heures ([2]; 100 mg/Kg): 43 pour-cent | Augmentation temperature corporelle - °C ± d.s. après 3 heures ([2]; 100 mg/Kg): 0,94 ± 0,11 °C | inhibition en pour-cent calculée par rapport aux contrôles, après 4 heures ([2]; 100 mg/Kg): 56 pour-cent | Augmentation temperature corporelle - °C ± d.s. après 4 heures ([2]; 100 mg/Kg): 0,33 ± 0,07 °C | Augmentation temperature corporelle - °C ± d.s. après 1 heure ([2]; 200 mg/Kg): 1,1 ± 0,2 °C | inhibition en pour-cent calculée par rapport aux contrôles, après 2 heures ([2]; 200 mg/Kg): 24 pour-cent | Augmentation temperature corporelle - °C ± d.s. après 2 heures ([2]; 200 mg/Kg): 1,1 ± 0,17 °C | inhibition en pour-cent calculée par rapport aux contrôles, après 3 heures ([2]; 200 mg/Kg): 47 pour-cent | Augmentation temperature corporelle - °C ± d.s. après 3 heures ([2]; 200 mg/Kg): 0,87 ± 0,15 °C | inhibition en pour-cent calculée par rapport aux contrôles, après 4 heures ([2]; 200 mg/Kg): 62 pour-cent | Augmentation temperature corporelle - °C ± d.s. après 4 heures ([2]; 200 mg/Kg): 0,28 ± 0,05 °C | inhibition at 100 mg/kg ([3]; 1 h, 100 mg/Kg, read-out: % inhibition): 33% | inhibition at 200 mg/kg ([3]; 1 h, 200 mg/Kg, read-out: % inhibition): 49% | Frequence writhings ([3]; 100 mg/Kg): **19,5 ± 5,4 convulsions par minute | Frequence writhings ([3]; 200 mg/Kg): **14,88 ± 6,8 convulsions par minute | augmentation pour-cent par rapport aux contrôles (excrétion pulmonaire de fluorescéine, quantité totale) [4]: +90,8 pour-cent | Excrétion pulmonaire de fluorescéine Quantité pour-cent µg/100 g ([4]; rapportée à 100 g de poids corporel, ± déviation standard): 0,230 ± 0,042 µg/100 g | Excrétion pulmonaire de fluorescéine Quantité totale µg ([4]; ± déviation standard): 0,481 ± 0,068 µg | Lésions gastriques Hyperémie (rats): 4 | Lésions gastriques Hyperémie + hémorragie (rats): 2 | Lésions gastriques Hémorragie + ulcérations (rats): = | Nombre animaux morts (rats): 3 | Δ poids moyenne (rats): -10 grammes | solubilité en solvants organiques ([5]; benzène, chloroforme, diméthylcétone, éthanol, éther éthylique, isopropanol et autres solvants organiques): soluble | solubilité dans l'eau ([5]; eau): practiquement insoluble
